Assay results from BindingDB's records for doi:10.7270/Q2SB4462 (Burnham Center For Chemical Genomics, 2011).

Target: T1, Ubiquitin-conjugating enzyme E2 N (Homo sapiens, UniProt P61088)
T1 sequence (P61088 whole entry): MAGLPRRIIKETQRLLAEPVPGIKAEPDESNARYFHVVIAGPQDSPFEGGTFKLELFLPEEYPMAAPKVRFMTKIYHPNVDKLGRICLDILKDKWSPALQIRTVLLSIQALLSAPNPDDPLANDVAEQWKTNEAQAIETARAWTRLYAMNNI
Assay: UBC13 polyubiquitination inhibitor potency, dose response, biochemical, TR-FRET, reconfirmation (AID 493182)

Structure (SMILES)	IC50
C#CCOCCOCCOCCNc1nc(N2CCN(C(=O)[C@H](Cc3cc4ccccc4[nH]3)n3cc([C@@H](N)C(C)CC)nn3)CC2)nc(N2CCN(C(=O)[C@H](Cc3cc4ccccc4[nH]3)n3cc([C@@H](N)Cc4ccc(O)cc4)nn3)CC2)n1 (stereo partly drawn) [SMR000391146]	6.27 µM
CC1CC(C)(C)N2C(=O)/C(=N\NC(N)=S)c3cccc1c32 (stereo not drawn) [SMR000414933]	4.95 µM
CCN(CC)CCOC(=O)c1ccc(N=CC(C#N)c2nc(-c3ccc(OC)c(OC)c3)cs2)cc1 (stereo not drawn) [SMR000434079]	3.02 µM
C#CCOCCOCCOCCNc1nc(N2CCN(C(=O)C([C@@H](C)CC)n3cc(C(N)COC(=O)C(F)(F)F)nn3)CC2)nc(N2CCN(C(=O)[C@H](CCCCN)n3cc(C(N)CC(C)C)nn3)CC2)n1 (stereo partly drawn) [SMR000453712]	15.3 µM

Further lines, results first:

IC50	Structure (SMILES)
3.36 µM	C#CCOCCOCCOCCNc1nc(N2CCN(C(=O)CCCCCCCCCCNC(=O)Cn3cc(CCCCCN)nn3)CC2)nc(N2CCN(C(=O)CCCCCCCCCCNC(=O)Cn3cc(CCCCCN)nn3)CC2)n1 [SMR001231146]
5.71 µM	C#CCOCCOCCOCCNc1nc(N2CCN(C(=O)CCCCCCCCCCNC(=O)[C@H](CO)n3cc(CCCSC)nn3)CC2)nc(N2CCN(C(=O)CCCCCCCCCCNC(=O)[C@H](CCCCN)n3cc(CCO)nn3)CC2)n1 [SMR001318322]
4.56 µM	Cc1cccc2c1C(=NNC(N)=S)C(=O)N2C1OC(CO)C(O)C(O)C1O (stereo not drawn) [The compound has not trivial name.]
2.38 µM	NC(=S)NN=C1C(=O)N(C2OC(=O)c3ccccc32)c2ccccc21 (stereo not drawn) [[(Z)-[2-oxo-1-(3-oxo-1H-isobenzofuran-1-yl)-3-indolylidene]amino]thiourea]
